Data published in ChEMBL document CHEMBL1909046, “DrugMatrix in vitro pharmacology data”.

Key:
[1] = target: T1, Alpha-2C adrenergic receptor (Homo sapiens, UniProt P18825); experiment: DRUGMATRIX: Adrenergic Alpha-2C radioligand binding (ligand: [3H] MK-912); assay type: cell membranes, Sf9, Membrane; settings: sf9
T1 sequence (P18825 whole entry): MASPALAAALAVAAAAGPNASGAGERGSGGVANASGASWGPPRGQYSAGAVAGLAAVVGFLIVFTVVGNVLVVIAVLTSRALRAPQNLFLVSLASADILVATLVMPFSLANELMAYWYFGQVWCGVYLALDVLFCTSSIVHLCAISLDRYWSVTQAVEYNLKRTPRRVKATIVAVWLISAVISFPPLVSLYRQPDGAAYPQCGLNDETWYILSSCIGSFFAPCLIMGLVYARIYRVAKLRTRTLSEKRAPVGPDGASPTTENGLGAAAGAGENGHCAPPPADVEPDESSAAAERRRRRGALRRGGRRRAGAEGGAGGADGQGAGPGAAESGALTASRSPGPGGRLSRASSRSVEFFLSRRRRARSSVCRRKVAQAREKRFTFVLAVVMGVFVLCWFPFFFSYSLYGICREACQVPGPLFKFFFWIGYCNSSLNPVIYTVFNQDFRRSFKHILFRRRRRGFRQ

[2] = DRUGMATRIX: ATPase, Na+/K+ enzyme inhibition (substrate: ATP); assay type: tissue-based, Sus scrofa, Heart; settings: Not Active = under 50% inhibition at 10 µM
[3] = DRUGMATRIX: Glutamate, NMDA, Phencyclidine radioligand binding (ligand: [3H] TCP); assay type: cell membranes, Rattus norvegicus, Wistar, Cerebral cortex, Membrane; settings: Not Active = under 50% inhibition at 10 µM
[4] = DRUGMATRIX: Phosphodiesterase PDE3 enzyme inhibition (substrate: [3H]cAMP + cAMP); assay type: tissue-based, Homo sapiens; settings: platelet; Not Active = under 50% inhibition at 10 µM
[5] = target: T2, Angiotensin-converting enzyme (Oryctolagus cuniculus, UniProt P12822); assay type: tissue-based, Lung;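 further: enzymatic inhibition of angiotensin-converting enzyme measured with FAPGG as the substrate; in other assays of this panel Not Active means under 50% inhibition at 10 µM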
T2 sequence (P12822 whole entry): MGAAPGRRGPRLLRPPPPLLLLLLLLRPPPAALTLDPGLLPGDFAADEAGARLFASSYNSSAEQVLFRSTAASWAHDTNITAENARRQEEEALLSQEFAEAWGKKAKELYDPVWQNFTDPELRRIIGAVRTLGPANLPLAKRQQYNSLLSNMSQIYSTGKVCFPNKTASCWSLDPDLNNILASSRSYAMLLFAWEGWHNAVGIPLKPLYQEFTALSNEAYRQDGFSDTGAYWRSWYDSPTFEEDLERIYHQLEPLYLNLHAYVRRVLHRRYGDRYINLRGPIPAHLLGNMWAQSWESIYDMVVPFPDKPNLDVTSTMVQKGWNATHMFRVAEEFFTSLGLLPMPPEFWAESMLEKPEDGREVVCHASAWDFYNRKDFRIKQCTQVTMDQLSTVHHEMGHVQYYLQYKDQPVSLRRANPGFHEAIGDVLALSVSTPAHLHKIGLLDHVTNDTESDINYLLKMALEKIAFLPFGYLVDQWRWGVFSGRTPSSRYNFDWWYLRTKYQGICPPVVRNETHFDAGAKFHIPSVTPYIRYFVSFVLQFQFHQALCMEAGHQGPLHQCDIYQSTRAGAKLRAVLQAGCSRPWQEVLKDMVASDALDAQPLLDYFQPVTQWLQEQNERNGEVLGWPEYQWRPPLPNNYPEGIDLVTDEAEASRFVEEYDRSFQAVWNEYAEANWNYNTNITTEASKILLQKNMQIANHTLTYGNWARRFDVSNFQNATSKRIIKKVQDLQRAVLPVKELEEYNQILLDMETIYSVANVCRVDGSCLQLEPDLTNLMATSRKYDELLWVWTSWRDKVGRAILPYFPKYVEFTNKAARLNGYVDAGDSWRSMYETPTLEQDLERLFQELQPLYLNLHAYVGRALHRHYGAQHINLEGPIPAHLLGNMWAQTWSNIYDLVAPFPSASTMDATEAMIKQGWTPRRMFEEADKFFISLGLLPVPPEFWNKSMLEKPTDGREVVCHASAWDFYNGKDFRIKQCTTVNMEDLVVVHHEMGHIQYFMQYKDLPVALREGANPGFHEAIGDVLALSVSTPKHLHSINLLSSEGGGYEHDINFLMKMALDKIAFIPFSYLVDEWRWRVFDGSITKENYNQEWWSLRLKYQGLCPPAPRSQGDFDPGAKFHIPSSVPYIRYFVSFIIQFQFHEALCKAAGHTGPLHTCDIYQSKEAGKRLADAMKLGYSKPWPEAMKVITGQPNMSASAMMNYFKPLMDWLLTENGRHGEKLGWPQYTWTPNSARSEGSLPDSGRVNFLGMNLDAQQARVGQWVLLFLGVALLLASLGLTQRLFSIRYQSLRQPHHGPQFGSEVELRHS

[6] = target: Receptor tyrosine-protein kinase erbB-2 (Homo sapiens, UniProt P04626); experiment: biochemical; assay type: cell-based, Insect cells; settings: insect cells;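 further: inhibition of HER2 kinase enzyme activity, measured with Poly(Glu:Tyr) as the phosphorylation substrate; in other assays of this panel Not Active means under 50% inhibition at 10 µM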
Sequence of Receptor tyrosine-protein kinase erbB-2 (P04626 whole entry): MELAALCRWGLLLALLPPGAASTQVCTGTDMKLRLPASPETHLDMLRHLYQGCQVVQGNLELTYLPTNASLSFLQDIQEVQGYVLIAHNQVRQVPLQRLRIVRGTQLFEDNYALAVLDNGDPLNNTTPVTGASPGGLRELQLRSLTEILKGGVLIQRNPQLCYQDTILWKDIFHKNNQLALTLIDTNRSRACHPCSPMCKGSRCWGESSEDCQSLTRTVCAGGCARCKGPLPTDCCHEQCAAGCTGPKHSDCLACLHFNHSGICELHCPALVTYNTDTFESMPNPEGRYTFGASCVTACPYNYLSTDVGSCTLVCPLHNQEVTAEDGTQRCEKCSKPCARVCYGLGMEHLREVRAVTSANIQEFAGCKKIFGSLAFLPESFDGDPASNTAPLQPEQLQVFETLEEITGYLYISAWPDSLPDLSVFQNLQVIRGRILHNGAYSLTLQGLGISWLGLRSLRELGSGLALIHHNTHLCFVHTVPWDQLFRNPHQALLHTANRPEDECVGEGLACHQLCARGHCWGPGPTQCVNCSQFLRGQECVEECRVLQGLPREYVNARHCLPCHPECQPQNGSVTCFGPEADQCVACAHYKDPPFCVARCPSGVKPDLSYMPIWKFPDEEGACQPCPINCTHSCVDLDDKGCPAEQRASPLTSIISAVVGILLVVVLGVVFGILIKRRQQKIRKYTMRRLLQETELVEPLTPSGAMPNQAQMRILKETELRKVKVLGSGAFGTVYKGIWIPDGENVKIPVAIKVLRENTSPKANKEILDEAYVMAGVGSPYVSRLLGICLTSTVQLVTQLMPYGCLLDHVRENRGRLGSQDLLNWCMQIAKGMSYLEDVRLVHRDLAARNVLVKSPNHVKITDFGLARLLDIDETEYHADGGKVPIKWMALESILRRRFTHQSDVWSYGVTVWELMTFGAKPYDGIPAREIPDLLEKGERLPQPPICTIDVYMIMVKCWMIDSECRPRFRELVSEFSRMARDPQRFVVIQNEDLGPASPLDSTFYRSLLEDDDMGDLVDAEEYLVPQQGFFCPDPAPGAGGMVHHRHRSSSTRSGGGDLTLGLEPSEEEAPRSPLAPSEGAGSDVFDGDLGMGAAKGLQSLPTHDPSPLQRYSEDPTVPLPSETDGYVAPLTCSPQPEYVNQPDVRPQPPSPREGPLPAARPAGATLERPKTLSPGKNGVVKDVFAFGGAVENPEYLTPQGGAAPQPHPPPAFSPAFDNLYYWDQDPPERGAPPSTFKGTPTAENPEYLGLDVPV

[7] = target: T3, Cytochrome P450 2A6 (Homo sapiens, UniProt P11509); settings: bti-tn-5b1-4; further: in other assays of this panel Not Active means under 50% inhibition at 10 µM
T3 sequence (P11509 whole entry): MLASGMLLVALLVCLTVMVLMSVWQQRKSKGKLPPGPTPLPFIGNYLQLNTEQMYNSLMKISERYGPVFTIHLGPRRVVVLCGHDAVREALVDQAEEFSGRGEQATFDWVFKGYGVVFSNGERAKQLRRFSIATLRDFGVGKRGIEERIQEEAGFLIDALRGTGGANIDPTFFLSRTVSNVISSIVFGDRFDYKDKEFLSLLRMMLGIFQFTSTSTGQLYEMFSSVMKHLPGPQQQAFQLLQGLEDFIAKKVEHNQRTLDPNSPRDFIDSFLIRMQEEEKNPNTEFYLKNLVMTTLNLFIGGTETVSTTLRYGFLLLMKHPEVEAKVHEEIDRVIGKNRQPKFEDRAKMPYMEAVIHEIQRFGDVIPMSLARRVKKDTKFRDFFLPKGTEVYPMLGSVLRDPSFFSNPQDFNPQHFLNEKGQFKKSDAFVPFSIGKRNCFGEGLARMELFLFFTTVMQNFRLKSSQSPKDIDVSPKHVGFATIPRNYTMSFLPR

COc1ccccc1OCC(O)COC(N)=O (centres undefined) [METHOCARBAMOL]
Not Active: IC50 [1] | IC50 [2] | Ki [2] | IC50 [3] | Ki [3] | IC50 [4] | Ki [4] | IC50 [5] | IC50 [6] | IC50 [7] | Ki [7]

CO[C@@]1(NC(=O)CSCC#N)C(=O)N2C(C(=O)O)=C(CSc3nnnn3C)CS[C@@H]21 [CEFMETAZOLE]
Not Active: IC50 [1] | IC50 [2] | Ki [2] | IC50 [3] | Ki [3] | IC50 [4] | Ki [4] | IC50 [5] | IC50 [6] | IC50 [7] | Ki [7]

C=C(CC)C(=O)c1ccc(OCC(=O)O)c(Cl)c1Cl [ETHACRYNIC ACID]
Not Active: IC50 [1] | IC50 [2] | Ki [2] | IC50 [3] | Ki [3] | IC50 [4] | Ki [4] | IC50 [5] | IC50 [6] | IC50 [7] | Ki [7]

Oc1ccccc1O [CATECHOL]
Not Active: IC50 [1] | IC50 [2] | Ki [2] | IC50 [3] | Ki [3] | IC50 [4] | Ki [4] | IC50 [5] | IC50 [6] | IC50 [7] | Ki [7]

CC(C)(CO)C(O)C(=O)NCCCO (centres undefined) [PANTHENOL]
Not Active: IC50 [1] | IC50 [2] | Ki [2] | IC50 [3] | Ki [3] | IC50 [4] | Ki [4] | IC50 [5] | IC50 [6] | IC50 [7] | Ki [7]

NC(=O)N1c2ccccc2C=Cc2ccccc21 [CARBAMAZEPINE]
Not Active: IC50 [1] | IC50 [2] | Ki [2] | IC50 [3] | Ki [3] | IC50 [4] | Ki [4] | IC50 [5] | IC50 [6] | IC50 [7] | Ki [7]

C[C@@H]1CC[C@H]2[C@@H](C)C(=O)O[C@@H]3O[C@@]4(C)CC[C@@H]1[C@]32OO4 [ARTEMISININ]
Not Active: IC50 [1] | IC50 [2] | Ki [2] | IC50 [3] | Ki [3] | IC50 [4] | Ki [4] | IC50 [5] | IC50 [6]

CCOC(=O)[C@H](CCc1ccccc1)N[C@@H](C)C(=O)N1Cc2ccccc2C[C@H]1C(=O)O
Not Active: IC50 [1] | IC50 [2] | Ki [2] | IC50 [3] | Ki [3] | IC50 [4] | Ki [4] | IC50 [6] | IC50 [7] | Ki [7]

Cc1cn[nH]c1 [FOMEPIZOLE]
Not Active: IC50 [1] | IC50 [2] | Ki [2] | IC50 [3] | Ki [3] | IC50 [4] | Ki [4] | IC50 [5] | IC50 [6]

COc1ccccc1OCC(O)CO (centres undefined) [GUAIFENESIN]
Not Active: IC50 [1] | IC50 [2] | Ki [2] | IC50 [3] | Ki [3] | IC50 [4] | Ki [4] | IC50 [5] | IC50 [6]

N[C@@H](Cc1ccc(F)cc1)C(=O)O
Not Active: IC50 [1] | IC50 [2] | Ki [2] | IC50 [3] | Ki [3] | IC50 [4] | Ki [4] | IC50 [5] | IC50 [6]

CCC[C@@H]1C[C@@H](C(=O)N[C@@H]([C@H]2O[C@H](SC)[C@H](O)[C@@H](O)[C@H]2O)[C@H](C)Cl)N(C)C1 [CLINDAMYCIN]
Not Active: IC50 [1] | IC50 [2] | Ki [2] | IC50 [3] | Ki [3] | IC50 [4] | Ki [4] | IC50 [5] | IC50 [6]

CN1C[C@H](C(=O)N[C@]2(C)O[C@@]3(O)[C@@H]4CCCN4C(=O)[C@H](Cc4ccccc4)N3C2=O)C[C@@H]2c3cccc4[nH]cc(c34)C[C@H]21 [DIHYDROERGOTAMINE]
Not Active: IC50 [2] | Ki [2] | IC50 [3] | Ki [3] | IC50 [4] | Ki [4] | IC50 [5] | IC50 [6] | IC50 [7] | Ki [7]

C/C=C\c1ccc(O)c(OC)c1 [ISOEUGENOL]
Not Active: IC50 [1] | IC50 [2] | Ki [2] | IC50 [3] | Ki [3] | IC50 [4] | Ki [4] | IC50 [5] | IC50 [6]

CCOC(=O)[C@H](CCc1ccccc1)N[C@@H](C)C(=O)N1CCC[C@H]1C(=O)O
Not Active: IC50 [1] | IC50 [2] | Ki [2] | IC50 [3] | Ki [3] | IC50 [4] | Ki [4] | IC50 [6] | IC50 [7] | Ki [7]

N=C(N)N/N=C/c1c(Cl)cccc1Cl [GUANABENZ]
Not Active: IC50 [2] | Ki [2] | IC50 [3] | Ki [3] | IC50 [4] | Ki [4] | IC50 [5] | IC50 [6] | IC50 [7] | Ki [7]

CC(C)C[C@H]1C(=O)N2CCC[C@H]2[C@]2(O)O[C@](NC(=O)[C@@H]3C=C4c5cccc6[nH]c(Br)c(c56)C[C@H]4N(C)C3)(C(C)C)C(=O)N12 [BROMOCRIPTINE]
Not Active: IC50 [2] | Ki [2] | IC50 [3] | Ki [3] | IC50 [4] | Ki [4] | IC50 [5] | IC50 [6] | IC50 [7] | Ki [7]

Cc1cnc(C(=O)NCCc2ccc(S(=O)(=O)NC(=O)NC3CCCCC3)cc2)cn1 [GLIPIZIDE]
Not Active: IC50 [1] | IC50 [2] | Ki [2] | IC50 [3] | Ki [3] | IC50 [4] | Ki [4] | IC50 [5] | IC50 [6]
